pIC50: −log10 of the molar value.
Tests used:
[1] = biological target: Histone deacetylase 1 (Homo sapiens, UniProt Q13547)
Description: Inhibition of human recombinant C-terminally flag tagged HDAC1

[2] = system: HeLa; test: Antiproliferative activity against human HeLa cells after 72 hrs by celltiter-blue viability assay; assay type: functional, cell-based
[3] = biological target: Histone deacetylase 3 (Homo sapiens, UniProt O15379)
[4] = biological target: T1, Protein deacetylase HDAC6 (Homo sapiens, UniProt Q9UBN7)
T1 sequence (Q9UBN7 whole entry): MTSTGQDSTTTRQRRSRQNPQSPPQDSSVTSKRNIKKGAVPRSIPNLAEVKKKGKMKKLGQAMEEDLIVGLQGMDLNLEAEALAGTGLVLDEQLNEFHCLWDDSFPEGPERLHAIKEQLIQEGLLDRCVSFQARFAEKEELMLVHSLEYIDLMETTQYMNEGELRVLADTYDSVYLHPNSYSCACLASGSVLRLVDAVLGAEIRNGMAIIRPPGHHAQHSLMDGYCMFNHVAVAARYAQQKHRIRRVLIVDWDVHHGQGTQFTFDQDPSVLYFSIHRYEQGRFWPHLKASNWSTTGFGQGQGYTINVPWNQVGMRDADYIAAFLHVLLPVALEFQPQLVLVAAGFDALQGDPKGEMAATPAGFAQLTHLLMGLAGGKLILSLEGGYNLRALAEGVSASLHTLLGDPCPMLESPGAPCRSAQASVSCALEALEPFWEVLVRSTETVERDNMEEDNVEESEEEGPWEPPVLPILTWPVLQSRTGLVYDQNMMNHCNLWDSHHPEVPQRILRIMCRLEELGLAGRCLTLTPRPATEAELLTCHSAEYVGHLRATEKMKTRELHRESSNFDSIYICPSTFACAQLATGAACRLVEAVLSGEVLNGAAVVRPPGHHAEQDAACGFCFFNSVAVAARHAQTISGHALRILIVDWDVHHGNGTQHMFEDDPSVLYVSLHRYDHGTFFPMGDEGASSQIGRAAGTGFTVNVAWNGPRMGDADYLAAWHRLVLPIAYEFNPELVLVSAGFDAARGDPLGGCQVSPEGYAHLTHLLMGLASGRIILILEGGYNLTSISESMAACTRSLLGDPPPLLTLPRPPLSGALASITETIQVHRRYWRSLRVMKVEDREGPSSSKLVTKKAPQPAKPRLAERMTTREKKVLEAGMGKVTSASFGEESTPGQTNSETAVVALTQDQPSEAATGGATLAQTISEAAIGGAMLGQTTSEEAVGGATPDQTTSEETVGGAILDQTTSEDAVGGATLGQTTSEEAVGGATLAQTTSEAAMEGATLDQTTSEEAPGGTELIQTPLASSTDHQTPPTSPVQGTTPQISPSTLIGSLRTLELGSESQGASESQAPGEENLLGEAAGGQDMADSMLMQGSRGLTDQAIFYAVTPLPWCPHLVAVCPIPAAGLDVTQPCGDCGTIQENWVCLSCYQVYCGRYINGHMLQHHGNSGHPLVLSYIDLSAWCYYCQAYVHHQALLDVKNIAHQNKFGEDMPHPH

[5] = Metabolic stability in rat liver microsomes assessed as intrinsic clearance; assay type: ADME, Microsome

Histone deacetylase 3, sequence (O15379 whole entry): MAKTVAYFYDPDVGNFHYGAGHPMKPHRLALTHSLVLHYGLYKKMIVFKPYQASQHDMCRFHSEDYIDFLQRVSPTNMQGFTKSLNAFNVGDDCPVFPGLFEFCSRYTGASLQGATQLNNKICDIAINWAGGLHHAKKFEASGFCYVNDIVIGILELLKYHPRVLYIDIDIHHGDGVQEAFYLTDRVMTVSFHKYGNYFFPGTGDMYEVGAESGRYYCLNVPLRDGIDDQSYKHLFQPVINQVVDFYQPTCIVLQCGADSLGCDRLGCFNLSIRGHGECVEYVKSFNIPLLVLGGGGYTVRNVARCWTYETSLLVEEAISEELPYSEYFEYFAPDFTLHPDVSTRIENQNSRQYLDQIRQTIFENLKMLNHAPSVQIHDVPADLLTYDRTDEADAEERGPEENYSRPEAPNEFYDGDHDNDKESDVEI
Histone deacetylase 1, sequence (Q13547 whole entry): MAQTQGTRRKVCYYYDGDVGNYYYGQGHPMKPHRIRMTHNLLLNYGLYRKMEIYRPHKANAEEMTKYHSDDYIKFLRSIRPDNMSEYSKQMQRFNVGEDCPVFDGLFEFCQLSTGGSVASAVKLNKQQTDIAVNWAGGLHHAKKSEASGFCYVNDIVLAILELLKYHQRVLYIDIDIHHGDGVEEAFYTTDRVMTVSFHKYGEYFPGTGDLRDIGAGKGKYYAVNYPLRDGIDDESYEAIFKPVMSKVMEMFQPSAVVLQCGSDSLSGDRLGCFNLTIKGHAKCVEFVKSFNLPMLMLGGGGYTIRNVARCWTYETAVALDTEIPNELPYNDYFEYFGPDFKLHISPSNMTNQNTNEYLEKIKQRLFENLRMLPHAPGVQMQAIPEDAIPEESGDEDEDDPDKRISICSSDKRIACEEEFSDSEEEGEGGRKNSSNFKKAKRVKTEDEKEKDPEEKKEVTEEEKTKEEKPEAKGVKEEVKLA

## CC(=O)CCCCC[C@H](NS(=O)(=O)c1ccc([N+](=O)[O-])c(F)c1)c1ncc(-c2ccccc2)[nH]1
[1]
  pIC50: 6.89
[2]
  pIC50: 6.00

## CCCC(=O)CCCCC[C@H](NC(=O)C1CCN(C)CC1)c1ncc(-c2ccc3ccccc3c2)[nH]1
[3]
  pIC50: 7.57
[1]
  pIC50: 7.80
[4]
  pIC50: 5.85
[2]
  pIC50: 6.70

## CC(=O)CCCCC[C@H](NC(=O)C1CCN(C)CC1)c1ncc(-c2ccccc2Cl)[nH]1
[1]
  pIC50: 6.74
[2]
  pIC50: 5.89

## CC(=O)CCCCC[C@H](NC(=O)C1CCN(C)CC1)c1ncc(-c2ccccc2)[nH]1
[1]
  pIC50: 6.60
[5]
  microsomal CLint: 68 µL/min/mg
[2]
  pIC50: 6.01

## CC(=O)CCCCC[C@H](NC(=O)C1CCN(C)CC1)c1ncc(-c2ccsc2)[nH]1
[1]
  pIC50: 6.62
[2]
  pIC50: 5.49

## CC(=O)CCCCC[C@H](NC(=O)C1CCN(C)CC1)c1ncc(-c2ccc(-c3ccccc3)cc2)[nH]1
[1]
  pIC50: 7.30
[5]
  microsomal CLint: 170 µL/min/mg
[2]
  pIC50: 6.41

## CC(=O)CCCCC[C@H](NC(=O)C1CCN(C)C1)c1ncc(-c2ccccc2)[nH]1 (some centres not stated)
[1]
  pIC50: 6.55
[5]
  microsomal CLint: 501 µL/min/mg
[2]
  pIC50: 5.96

## CC(=O)CCCCC[C@H](NC(=O)C1CCCN(C)C1)c1ncc(-c2ccccc2)[nH]1 (some centres not stated)
[1]
  pIC50: 6.66
[5]
  microsomal CLint: 154 µL/min/mg
[2]
  pIC50: 6.40

## CCC(=O)CCCCC[C@H](NC(=O)C1CCN(C)CC1)c1ncc(-c2ccc3ccccc3c2)[nH]1
[3]
  pIC50: 7.92
[1]
  pIC50: 7.92
[4]
  pIC50: 6.10
[2]
  pIC50: 6.68

## CC(=O)CCCCC[C@H](NC(=O)CCN1CC2CCC1C2)c1ncc(-c2ccccc2)[nH]1 (some centres not stated)
[1]
  pIC50: 6.66
[5]
  microsomal CLint: 143 µL/min/mg
[2]
  pIC50: 5.77

## CC(=O)CCCCC[C@H](NC(=O)c1cccc(C#N)c1)c1ncc(-c2ccccc2)[nH]1
[1]
  pIC50: 6.80
[2]
  pIC50: 5.96

## CC(=O)CCCCC[C@H](NC(=O)C1CCN(C)CC1)c1ncc(-c2ccc(F)cc2)[nH]1
[1]
  pIC50: 6.42
[5]
  microsomal CLint: 99 µL/min/mg
[2]
  pIC50: 5.66

## CC(=O)CCCCC[C@H](NC(=O)C1CCN(C)CC1)c1ncc(-c2cccc(C#N)c2)[nH]1
[1]
  pIC50: 6.32
[2]
  pIC50: 5.81

## CC(=O)CCCCC[C@H](NC(=O)C1CCN(C)CC1)c1ncc(-c2ccc(C#N)cc2)[nH]1
[1]
  pIC50: 6.92
[5]
  microsomal CLint: 330 µL/min/mg
[2]
  pIC50: 5.82

## CC(=O)CCCCC[C@H](NC(=O)C1CCCCN1C)c1ncc(-c2ccccc2)[nH]1 (some centres not stated)
[1]
  pIC50: 6.15
[5]
  microsomal CLint: > 300 µL/min/mg
[2]
  pIC50: 5.57

## COc1ccc(S(=O)(=O)N[C@@H](CCCCCC(C)=O)c2ncc(-c3ccccc3)[nH]2)cc1
[1]
  pIC50: 6.60
[2]
  pIC50: 5.85

## CC(=O)CCCCC[C@H](NC(=O)C1CCN(C)CC1)c1ncc(-c2ccccn2)[nH]1
[1]
  pIC50: < 6.30
[2]
  pIC50: 5.01

## CC(=O)CCCCC[C@H](NC(=O)c1ccc2c(c1)OCCO2)c1ncc(-c2ccccc2)[nH]1
[1]
  pIC50: 6.52
[2]
  pIC50: 5.96

## CC(=O)CCCCC[C@H](NC(=O)C1CCN(C)CC1)c1ncc(C(C)(C)C)[nH]1
[1]
  pIC50: < 5.30
[2]
  pIC50: < 4.60

## CC(=O)CCCCC[C@H](NS(=O)(=O)c1ccc(C#N)cc1)c1ncc(-c2ccccc2)[nH]1
[1]
  pIC50: 6.74
[2]
  pIC50: 5.92

## CC(=O)CCCCC[C@H](NC(=O)C1CCN(C)CC1)c1ncc(-c2ccc(Br)cc2)[nH]1
[1]
  pIC50: 7.00
[5]
  microsomal CLint: > 300 µL/min/mg
[2]
  pIC50: 6.26

## CC(=O)CCCCC[C@H](NS(=O)(=O)c1cccc(C#N)c1)c1ncc(-c2ccccc2)[nH]1
[1]
  pIC50: 6.96
[2]
  pIC50: 5.96

## CC(=O)CCCCC[C@H](NS(=O)(=O)c1ccccc1C#N)c1ncc(-c2ccccc2)[nH]1
[1]
  pIC50: 6.57
[2]
  pIC50: 5.14

## CC(=O)CCCCC[C@H](NC(=O)CN1CCN(C)CC1)c1ncc(-c2ccccc2)[nH]1
[1]
  pIC50: 6.30
[5]
  microsomal CLint: 64 µL/min/mg
[2]
  pIC50: 5.70

## CC(=O)CCCCC[C@H](NS(=O)(=O)c1cccc([N+](=O)[O-])c1)c1ncc(-c2ccccc2)[nH]1
[1]
  pIC50: 7.26
[2]
  pIC50: 5.89

## CC(=O)CCCCC[C@H](NC(=O)C1CCN(C)CC1)c1nc(C)c(-c2ccccc2)[nH]1
[1]
  pIC50: < 5.82
[2]
  pIC50: 4.83

## CC(=O)CCCCC[C@H](NC(=O)C1CCN(C)CC1)c1ncc(-c2cccc(Cl)c2)[nH]1
[1]
  pIC50: 7.05
[2]
  pIC50: 6.40

## CC(=O)CCCCC[C@H](NC(=O)C1CCN(C)CC1)c1ncc(-c2ccc(Cl)cc2)[nH]1
[1]
  pIC50: 7.12
[5]
  microsomal CLint: 246 µL/min/mg
[2]
  pIC50: 6.17

## CC(=O)CCCCC[C@H](NC(=O)C1CCN(C)CC1)c1ncc(-c2csc3ccccc23)[nH]1
[1]
  pIC50: 6.74
[2]
  pIC50: 5.89

## CC(=O)CCCCC[C@H](NC(=O)c1cncs1)c1ncc(-c2ccccc2)[nH]1
[1]
  pIC50: 6.85
[2]
  pIC50: 6.28

## CCCCC(=O)CCCCC[C@H](NC(=O)C1CCN(C)CC1)c1ncc(-c2ccc3ccccc3c2)[nH]1
[3]
  pIC50: 6.74
[1]
  pIC50: 7.13
[4]
  pIC50: 5.46
[2]
  pIC50: 6.16

## CC(=O)CCCCC[C@H](NC(=O)CCN1CCCCC1)c1ncc(-c2ccccc2)[nH]1
[1]
  pIC50: 6.72
[5]
  microsomal CLint: > 300 µL/min/mg
[2]
  pIC50: 5.89

— ChEMBL document CHEMBL1152225, “Optimization of a series of potent and selective ketone histone deacetylase inhibitors” (Bioorg Med Chem Lett, 2008)
